Source: publication PMC5159881 (Nature Communications, 2016)
Like-named read-outs stand apart in the source and are kept apart here.

Columns and labels:
AR-FL = AR-FL (Homo sapiens, UniProt P10275); test: MMTV-luc dual luciferase reporter assay, DHT-induced AR activity in 22RV1 cells; type: cell-based; conditions: 22RV1, DHT +, compound 10 µM, 12 h, mean ± s.d., n=3
Protocol: (§1) Renilla and firefly activities were then determined by luminometry using the Dual-Luciferase Reporter Assay System (Promega) and the ratio calculated. Results were expressed as the ratio of firefly to Renilla luciferase activity.
After transient transfection of MMTV-luc and Renilla-luc in 22RV1, the MMTV-luc
activities were stimulated by androgen DHT. Then cells were treated with indicated
expressed as the ratio of luciferase activity. Values are presented as mean ± s.d., n =

AR1-651 = target: T1, AR1-651 (Homo sapiens, UniProt P10275); test: MMTV-luc dual luciferase reporter assay, AR1-651-induced activity in 22RV1 cells; type: cell-based; conditions: for MMTV-luc Activity (%), AR1-651-induced: 22RV1, AR1-651 +, 12 h;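 as to all read-outs here: luminometric read-out of firefly luciferase signal normalized to Renilla luciferase signal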
T1 construct: FLAG; expressed in transfected cells; host or cells: 22RV1
T1 sequence (P10275 1-651): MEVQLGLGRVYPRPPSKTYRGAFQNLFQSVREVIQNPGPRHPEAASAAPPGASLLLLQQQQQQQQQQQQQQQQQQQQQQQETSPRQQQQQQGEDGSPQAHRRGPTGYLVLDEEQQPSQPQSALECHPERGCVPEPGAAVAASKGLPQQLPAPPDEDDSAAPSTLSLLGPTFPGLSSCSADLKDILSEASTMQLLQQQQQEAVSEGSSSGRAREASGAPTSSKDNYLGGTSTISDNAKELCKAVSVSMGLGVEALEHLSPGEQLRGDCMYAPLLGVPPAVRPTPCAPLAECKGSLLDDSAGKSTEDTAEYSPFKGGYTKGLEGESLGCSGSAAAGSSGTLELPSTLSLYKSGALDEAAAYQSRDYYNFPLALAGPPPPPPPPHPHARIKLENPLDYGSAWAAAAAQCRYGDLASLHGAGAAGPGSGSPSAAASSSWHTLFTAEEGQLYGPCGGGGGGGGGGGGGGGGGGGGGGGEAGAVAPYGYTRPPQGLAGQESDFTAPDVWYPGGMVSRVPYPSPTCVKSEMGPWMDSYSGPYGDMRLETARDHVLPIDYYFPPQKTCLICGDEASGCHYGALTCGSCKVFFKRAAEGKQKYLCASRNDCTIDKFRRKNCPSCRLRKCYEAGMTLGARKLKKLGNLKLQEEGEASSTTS
Protocol: as §1

[1] = compound 10 µM, mean ± s.d., n=3
[2] = 22Rv1, read-out: MMTV-luc Activity (%), AR1-651-induced, 22RV1, AR1-651 +, compound 10 µM, 12 h, mean ± s.d., n=3
[3] = 22Rv1, read-out: MMTV-luc Activity (%), AR1-651-induced
[4] = 22Rv1, read-out: MMTV-luc Activity (%), AR1-651-induced, 22RV1, AR1-651 +, compound 1 µM, 12 h

Chain of AR-FL (P10275 whole entry): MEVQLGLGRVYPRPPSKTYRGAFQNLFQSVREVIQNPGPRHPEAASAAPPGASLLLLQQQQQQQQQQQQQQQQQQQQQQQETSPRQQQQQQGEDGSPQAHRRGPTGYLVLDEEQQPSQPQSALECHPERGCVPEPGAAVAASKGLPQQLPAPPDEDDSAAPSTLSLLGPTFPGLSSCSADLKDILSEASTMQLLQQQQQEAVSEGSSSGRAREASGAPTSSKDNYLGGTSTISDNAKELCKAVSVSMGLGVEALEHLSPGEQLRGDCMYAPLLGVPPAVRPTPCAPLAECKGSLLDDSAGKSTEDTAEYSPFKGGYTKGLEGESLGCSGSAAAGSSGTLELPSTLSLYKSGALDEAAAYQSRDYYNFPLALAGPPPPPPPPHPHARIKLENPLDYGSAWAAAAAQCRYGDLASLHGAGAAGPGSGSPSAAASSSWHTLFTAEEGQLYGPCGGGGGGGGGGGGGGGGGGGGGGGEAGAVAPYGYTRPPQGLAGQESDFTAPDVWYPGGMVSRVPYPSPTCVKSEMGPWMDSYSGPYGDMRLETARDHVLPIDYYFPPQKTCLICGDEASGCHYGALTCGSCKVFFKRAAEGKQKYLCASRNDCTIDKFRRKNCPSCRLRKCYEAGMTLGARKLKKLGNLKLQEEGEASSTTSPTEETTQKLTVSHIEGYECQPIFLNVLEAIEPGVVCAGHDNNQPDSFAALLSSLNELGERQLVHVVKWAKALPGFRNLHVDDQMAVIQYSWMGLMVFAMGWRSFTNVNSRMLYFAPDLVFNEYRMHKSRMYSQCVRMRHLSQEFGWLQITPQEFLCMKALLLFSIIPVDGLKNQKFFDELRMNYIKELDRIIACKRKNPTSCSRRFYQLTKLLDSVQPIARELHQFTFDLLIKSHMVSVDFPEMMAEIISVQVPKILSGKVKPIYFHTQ

Row | activity at 10 µM (AR1-651; [2]) [%] | Compound | MMTV-luc Activity (%), AR1-651-induced (AR1-651; [1]) [%] | further results
1 | 105 | Cc1coc2c1C(=O)C(=O)c1c-2ccc2c1CCCC2(C)C [Tanshinone IIA] | – | –
2 | 157 | O=c1c(-c2ccc(O)cc2)coc2cc(O)cc(O)c12 [Genistein] | – | –
3 | 95.5 | O=c1c(O[C@@H]2O[C@H](CO)[C@@H](O)[C@H](O)[C@H]2O)c(-c2ccc(O)c(O)c2)oc2cc(O)cc(O)c12 [Isoquercitrin] | – | –
4 | 112 | O=C1C=CC2(CCC23C=CC(=O)O3)O1 (centres unmarked) [Anemonin] | – | –
5 | 115 | O=C(/C=C/c1ccc(O)c(O)c1)O[C@H](Cc1ccc(O)c(O)c1)C(=O)O [Rosmarinic acid] | – | –
6 | 82.7 ± 4.5 | O=c1cc(-c2ccc(O)c(O)c2)oc2cc(O)cc(O)c12 [Luteolin] | – | –
7 | 88.5 | C[C@@]12C[C@@]3(O)O[C@@H](O1)[C@]1(COC(=O)c4ccccc4)[C@H]3C[C@@]12O[C@@H]1O[C@H](CO)[C@@H](O)[C@H](O)[C@H]1O [Paeoniflorin] | – | –
8 | 178 | COc1cc(/C=C/C(=O)CC(=O)/C=C/c2ccc(O)c(OC)c2)ccc1O [Curcumin] | – | –
9 | 61.9 | CCNC(=O)CC[C@H](N)C(=O)O [L-Theanine] | – | –
10 | 89.8 ± 8 | O=C1c2c(O)cc(O)cc2O[C@H](c2cc(O)c(O)c(O)c2)[C@H]1O [Dihydromyricetin] | – | –
11 | 113 | O=C(O)[C@H]1O[C@@H](Oc2cc3oc(-c4ccccc4)cc(=O)c3c(O)c2O)[C@H](O)[C@@H](O)[C@@H]1O [Baicalin] | – | –
12 | 80.1 ± 1.8 | O=c1c(-c2ccc(O)cc2)coc2c([C@@H]3O[C@H](CO)[C@@H](O)[C@H](O)[C@H]3O)c(O)ccc12 [Puerarin] | – | –
13 | 91.4 | C[C@@H]1O[C@@H](OC[C@H]2O[C@@H](Oc3c(-c4ccc(O)c(O)c4)oc4cc(O)cc(O)c4c3=O)[C@H](O)[C@@H](O)[C@@H]2O)[C@H](O)[C@H](O)[C@H]1O [Rutin] | – | –
14 | 59.5 | C=C1CC[C@@H]2[C@](C)(CO)[C@H](O)CC[C@@]2(C)[C@@H]1C/C=C1/C(=O)OC[C@H]1O [Andrographolide] | – | activity at 1 µM (AR1-651; [4]): 70%
15 | 99.9 ± 4.1 | Cc1coc2c1C(=O)C(=O)c1c-2ccc2c(C)cccc12 [Tanshinone I] | – | –
16 | 177 | O=c1c(-c2ccc(O)cc2)coc2cc(O)ccc12 [Daidzein] | – | –
17 | 90 ± 5.4 | COc1cc(/C=C/c2ccc(O)cc2)cc(OC)c1 [Pterostilbene] | – | –
18 | 104 | O=C(O)C1=C[C@@H](O)[C@@H](O)[C@H](O)C1 [shikimic acid] | – | –
19 | 52.9 | O=C(CCc1ccc(O)cc1)c1c(O)cc(O)cc1O[C@@H]1O[C@H](CO)[C@@H](O)[C@H](O)[C@H]1O [Phlorizin] | – | activity at 1 µM (AR1-651; [4]): 126%
20 | 96.3 ± 6.1 | CC(C)[C@@H](C)/C=C/[C@@H](C)[C@H]1CC[C@H]2C3=CC=C4C[C@@H](O)CC[C@]4(C)[C@H]3CC[C@]12C [Ergosterol] | – | –

More lines, now with the values behind:

Row | Compound | activity at 10 µM (AR1-651; [2]) [%] | MMTV-luc Activity (%), AR1-651-induced (AR1-651; [1]) [%] | further results
21 | COc1ccc([C@@H]2CC(=O)c3c(O)cc(O[C@@H]4O[C@H](CO[C@@H]5O[C@@H](C)[C@H](O)[C@@H](O)[C@H]5O)[C@@H](O)[C@H](O)[C@H]4O)cc3O2)cc1O [Hesperidin] | – | 110.2±13 | MMTV-luc Activity (%), DHT-induced (AR-FL): 85.5±23.9%
22 | Myricitrin | – | 102.1 | –
23 | CC1(C)CC[C@]2(C(=O)O)CC[C@]3(C)C(=CC[C@@H]4[C@@]5(C)CC[C@H](O)C(C)(C)[C@@H]5CC[C@]43C)[C@@H]2C1 [Oleanic acid] | – | 153.4 | MMTV-luc Activity (%), DHT-induced (AR-FL): 122.4±7.5%
24 | C=C1C[C@@]2(O)O[C@@]3(C[C@H]2C(C)C)[C@@H](C)CC[C@@H]13 [Curcumol] | – | 43.7 | MMTV-luc Activity (%), DHT-induced (AR-FL): 90.0±9.2%; MMTV-luc Activity (%), AR1-651-induced (AR1-651; compound 1 µM): 86.4±7.7%
25 | astragalosideⅠ | – | 87.0±5.2 | MMTV-luc Activity (%), DHT-induced (AR-FL): 117.8±5.2%
26 | CC(C)(C)[C@]1(O)CC2OC(=O)CC23C(=O)OC2OC(=O)[C@H](O)C231 (some centres unmarked) [Bilobalide] | – | – | activity at 10 µM (AR1-651; [3]): 98.7 ± 1.1%
27 | CC1=CC(=O)c2c(O)cccc2C1=O [Plumbagin] | 28.8 ± 7.9 | – | activity at 1 µM (AR1-651; [4]): 128%
28 | Asiaticoside | – | 150.9 | –
29 | C=CCc1ccc(O)c(-c2cc(CC=C)ccc2O)c1 [Magnolol] | – | – | activity at 1 µM (AR1-651; [3]): 60.6%; activity at 10 µM (AR1-651; [3]): 59.3%
30 | O=C1CCC[C@@H]2[C@H]3CCC[N@+]4([O-])CCC[C@@H](CN12)[C@@H]34 [Ammothamnine] | – | 105.7 | MMTV-luc Activity (%), DHT-induced (AR-FL): 119.1±20.9%
31 | Cc1cc(O)c(C(=O)CCC(C)C)c(=O)o1 [Pogostone] | – | 157.2 | MMTV-luc Activity (%), DHT-induced (AR-FL): 92.3±13.3%
32 | CC(C)(c1ccc(OCC(O)CO)cc1)c1ccc(OCC(O)CCl)cc1 (stereo not drawn) [EPI-001, reference compound] | – | – | MMTV-luc Activity (%), AR1-651-induced (AR1-651; compound 25 µM): 54.2%
33 | CC(C)=CCC[C@](C)(O[C@@H]1O[C@H](CO)[C@@H](O)[C@H](O)[C@H]1O)[C@H]1CC[C@]2(C)[C@@H]1[C@H](O)C[C@@H]1[C@@]3(C)CC[C@H](O)C(C)(C)[C@@H]3[C@@H](O[C@@H]3O[C@H](CO)[C@@H](O)[C@H](O)[C@H]3O)C[C@]12C [Ginsenoside Rg1] | 77.2 | – | –
34 | C=C[C@H]1[C@H](O[C@@H]2O[C@H](CO)[C@@H](O)[C@H](O)[C@H]2O)OC=C2C(=O)OCC[C@]21O [Swertiamain] | – | 64.7±7.5 | MMTV-luc Activity (%), DHT-induced (AR-FL): 80.9±8.5%
35 | O[C@H]1[C@H]2c3cc4c(cc3CN3CCC(=C[C@@H]1O)[C@H]23)OCO4 [Lycorine] | – | – | activity at 10 µM (AR1-651; [3]): 66%
36 | CC1(C)[C@@H](O)CC[C@]2(C)[C@H]3C(=O)C=C4[C@@H]5C[C@@](C)(C(=O)O)CC[C@]5(C)CC[C@@]4(C)[C@]3(C)CC[C@@H]12 [glycyrrhetic acid] | – | 308.3 | MMTV-luc Activity (%), DHT-induced (AR-FL): 101.3±11.9%
37 | O=C([O-])C(O)Cc1ccc(O)c(O)c1.[Na+] (centres unmarked) [Sodium Danshensu] | – | 73.3 | MMTV-luc Activity (%), DHT-induced (AR-FL): 93.0±14.7%
38 | OCc1ccc(O[C@@H]2O[C@H](CO)[C@@H](O)[C@H](O)[C@H]2O)cc1 [Gastrodin] | – | – | activity at 10 µM (AR1-651; [3]): 70 ± 3.7%
39 | COc1cc(-c2oc3cc(O)cc(O)c3c(=O)c2O)ccc1O [Isorhamnetin] | – | – | activity at 10 µM (AR1-651; [3]): 139%
40 | D-Tanshinone I | – | 138.3 | –
41 | O=Cc1ccc(O)c(O)c1 [Protocatechuic aldehyde] | – | 62.5 | MMTV-luc Activity (%), DHT-induced (AR-FL): 83.1±0.1%
42 | C=C(C)[C@@H]1CC[C@]2(C(=O)O)CC[C@]3(C)[C@H](CC[C@@H]4[C@@]5(C)CC[C@H](O)C(C)(C)[C@@H]5CC[C@]43C)[C@@H]12 [Betulinic acid] | 65.2 | – | –
43 | CN1CCc2cc3c(cc2[C@H]1[C@@H]1OC(=O)c2c1ccc1c2OCO1)OCO3 [d-Bicuculline] | – | 112.1 | MMTV-luc Activity (%), DHT-induced (AR-FL): 75.0±11.5%
44 | O=C(/C=C/c1ccc(O)c2c1[C@H](C(=O)O[C@H](Cc1ccc(O)c(O)c1)C(=O)O)[C@@H](c1ccc(O)c(O)c1)O2)O[C@H](Cc1ccc(O)c(O)c1)C(=O)O [lithospermic acid B] | – | 96.3±4.2 | MMTV-luc Activity (%), DHT-induced (AR-FL): 115.9±27.9%
45 | C[C@@H]1CC[C@@]2(OC1)O[C@H]1C[C@H]3[C@@H]4CC=C5C[C@@H](O)CC[C@]5(C)[C@H]4CC[C@]3(C)[C@H]1[C@@H]2C [Diosgenin] | 148 | – | –
